# Where no end group is shown, it is not given here.
# How the values were obtained:
# p53^−/− mice = assay: TauT-peptide vaccination of p53−/− mice: tumor development and lifespan; assay type: in vivo
# Procedure: To evaluate the efficacy of TauT-peptide as a cancer vaccine, p53^−/− (C57BL/6J background) were injected with either TauT-peptide (100 μg/kg) or vehicle only at the age of 4 weeks and boosted 2 weeks later (n=12 for each group). All mice were observed daily for signs of morbidity and the development of tumors.
# To test TauT-peptide vaccine, p53 knockout (KO) mice were immunized with 100 μg/kg and boosted with an equal amount of antigen 2 weeks late. […] Mice were bled on Days 21 and 36 to measure the antibody response.
# To evaluate the efficacy of TauT-peptide as a cancer vaccine, p53 null (C57BL/6J background) were injected with either TauT-peptide (100 μg/kg) or vehicle only at the age of 4 weeks and boosted 2 weeks later (n=12 for each group). All mice were observed daily for signs of morbidity and the development of tumors.
# p53^+/− mice = assay: TauT-peptide vaccination of p53+/− mice: tumor development and lifespan; assay type: in vivo
# Procedure: FIG. 2A and FIG. 2B. TauT-peptide vaccination prolongs p53^+/− mice lifespan. To evaluate the efficacy of TauT-peptide as a cancer vaccine, p53^+/− (C57BL/6J background) were injected with either TauT-peptide (100 μg/kg) or vehicle only at the age of 4 weeks and boosted 2 weeks later (n=15 for each group). All mice were observed daily for signs of morbidity and the development of tumors. The p53^+/− control mice started to develop tumor (mainly osteosarcoma) at the age of 186 day (FIG. 2A). The median lifespan for p53^+/− control mice was 315 days (FIG. 2B), which consistent with other studies. […] TauT-peptide vaccination delayed tumor develops in all vaccinated p53^+/− mice, which started to develop tumor (mainly osteosarcoma) and died at the age of 526 days (FIG. 2A).
# TauT-peptide (SEQ ID NO 3) was coupled to KLH with a kit (Imject SuperCarrier EDC system for Peptides; Pierce). To test TauT-peptide vaccine, p53 knockout (KO) mice were immunized with 100 μg/kg and boosted with an equal amount of antigen 2 weeks late. To develop and test TauT-Ab, wild type control mice were immunized with 100 μg/kg TauT-peptide and boosted with an equal amount of antigen 2 weeks late. Mice were bled on Days 21 and 36 to measure the antibody response. Antisera were collected on Day 49 and purified by affinity column chromatography (Pierce). Antisera were stored at −80° C. Specificity of the antibody was determined by Western blot analysis (10).
# [1] = p53−/− mice, 100 μg/kg at 4 weeks of age, boosted 2 weeks later
# [2] = p53−/− mice, 100 μg/kg at 4 weeks of age, boosted 2 weeks later, n=12
# [3] = p53+/− mice, 100 μg/kg at 4 weeks of age, boosted 2 weeks later, n=15
substance,measurement,setting,value
"TauT-peptide vaccine: TauT-peptide (SEQ ID NO 3) comprising amino acid residues 313-326 of TauT (SLC6A6), coupled to KLH, used as peptide vaccine (GSYNKYKYNSYRDC; also: coupled to KLH carrier, site not given here)",response to the vaccine,p53^−/− mice; p53−/− mice vaccinated,100%
same,age at which mice started to develop tumor (mainly lymphoma) and died,p53^−/− mice; [1],6.3 months
same,lifespan,p53^−/− mice; [1],6.9 months
same,age at which mice started to develop tumor (mainly lymphoma),p53^−/− mice; [2],189 days
same,median lifespan,p53^−/− mice; [2],207 days
same,increase of (median) lifespan versus control,"p53^−/− mice; p53−/− mice, vaccinated vs vehicle control",1.5 fold
same,response to the vaccine,p53^+/− mice; p53+/− mice vaccinated,100%
same,age at which mice started to develop tumor (mainly osteosarcoma) and died,p53^+/− mice; [3],526 days
same,median lifespan,p53^+/− mice; [3],621 days

# From US20190202885A1, “TauT (taurine transporter) peptide cancer vaccine” (priority 2017, published 2019)
